Measured values from ChEMBL document CHEMBL4610040, “Addressing hERG activity while maintaining favorable potency, selectivity and pharmacokinetic properties of PPARδ modulators” (Bioorg Med Chem Lett, 2020).

Tests used:
[1] = AUC (0 to infinity) in CD-1 mouse at 1 mg/kg, iv or 3 mg/kg, po; assay type: ADME, organism-based; conditions: in vivo
[2] = target: hERG (KCNH2) (Homo sapiens, UniProt Q12809); test: Inhibition of human ERG expressed in HEK293 cells at 10 uM by semi-automatic patch clamp assay relative to control; assay type: cell-based; conditions: HEK293 cells that express hERG
[3] = target: T1, Peroxisome proliferator-activated receptor alpha (Homo sapiens, UniProt Q07869); test: Transactivation of GAL4-fused human PPARalpha expressed in African green monkey CV1 cells by luciferase reporter gene assay; assay type: cell-based, CV-1
T1 sequence (Q07869 whole entry): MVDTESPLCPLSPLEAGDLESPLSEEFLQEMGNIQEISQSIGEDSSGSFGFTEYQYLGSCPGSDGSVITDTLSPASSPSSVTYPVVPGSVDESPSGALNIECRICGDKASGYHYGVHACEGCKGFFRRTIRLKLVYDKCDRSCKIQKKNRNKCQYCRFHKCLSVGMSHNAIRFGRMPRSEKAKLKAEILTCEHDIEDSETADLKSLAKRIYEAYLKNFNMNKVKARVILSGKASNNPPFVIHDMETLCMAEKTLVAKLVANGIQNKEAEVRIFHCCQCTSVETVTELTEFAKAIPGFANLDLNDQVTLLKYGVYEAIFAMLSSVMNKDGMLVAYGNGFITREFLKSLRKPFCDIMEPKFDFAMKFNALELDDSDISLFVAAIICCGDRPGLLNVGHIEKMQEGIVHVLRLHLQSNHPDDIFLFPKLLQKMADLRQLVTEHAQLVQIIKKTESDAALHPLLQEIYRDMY

[4] = target: T2, Peroxisome proliferator-activated receptor gamma (Homo sapiens, UniProt P37231); test: Transactivation of GAL4-fused human PPARgamma expressed in African green monkey CV1 cells by luciferase reporter gene assay; assay type: cell-based, CV-1
T2 sequence (P37231 whole entry): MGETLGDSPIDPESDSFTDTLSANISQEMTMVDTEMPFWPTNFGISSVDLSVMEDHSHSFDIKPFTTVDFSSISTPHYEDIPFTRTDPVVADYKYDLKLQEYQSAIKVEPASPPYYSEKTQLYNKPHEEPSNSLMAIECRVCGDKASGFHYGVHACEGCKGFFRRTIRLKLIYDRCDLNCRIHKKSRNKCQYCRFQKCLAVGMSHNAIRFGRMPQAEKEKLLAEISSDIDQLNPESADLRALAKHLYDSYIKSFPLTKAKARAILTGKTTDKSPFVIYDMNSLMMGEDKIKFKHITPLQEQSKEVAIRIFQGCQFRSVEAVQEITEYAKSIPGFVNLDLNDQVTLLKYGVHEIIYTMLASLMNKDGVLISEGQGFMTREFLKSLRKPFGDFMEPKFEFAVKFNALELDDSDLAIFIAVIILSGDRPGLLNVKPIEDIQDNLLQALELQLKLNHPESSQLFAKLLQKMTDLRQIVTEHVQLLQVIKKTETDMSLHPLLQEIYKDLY

[5] = Oral bioavailability in CD-1 mouse at 3 mg/kg; assay type: ADME, organism-based; conditions: in vivo
[6] = Elimination half life in CD-1 mouse at 1 mg/kg, iv or 3 mg/kg, po; assay type: ADME, organism-based; conditions: in vivo, read-out: beta t1/2 (converted)
[7] = target: Voltage-gated inwardly rectifying potassium channel KCNH2 (Homo sapiens, UniProt Q12809); test: Inhibition of human ERG expressed in HEK293 cells by semi-automatic patch clamp assay; assay type: cell-based
Voltage-gated inwardly rectifying potassium channel KCNH2, sequence (Q12809 whole entry): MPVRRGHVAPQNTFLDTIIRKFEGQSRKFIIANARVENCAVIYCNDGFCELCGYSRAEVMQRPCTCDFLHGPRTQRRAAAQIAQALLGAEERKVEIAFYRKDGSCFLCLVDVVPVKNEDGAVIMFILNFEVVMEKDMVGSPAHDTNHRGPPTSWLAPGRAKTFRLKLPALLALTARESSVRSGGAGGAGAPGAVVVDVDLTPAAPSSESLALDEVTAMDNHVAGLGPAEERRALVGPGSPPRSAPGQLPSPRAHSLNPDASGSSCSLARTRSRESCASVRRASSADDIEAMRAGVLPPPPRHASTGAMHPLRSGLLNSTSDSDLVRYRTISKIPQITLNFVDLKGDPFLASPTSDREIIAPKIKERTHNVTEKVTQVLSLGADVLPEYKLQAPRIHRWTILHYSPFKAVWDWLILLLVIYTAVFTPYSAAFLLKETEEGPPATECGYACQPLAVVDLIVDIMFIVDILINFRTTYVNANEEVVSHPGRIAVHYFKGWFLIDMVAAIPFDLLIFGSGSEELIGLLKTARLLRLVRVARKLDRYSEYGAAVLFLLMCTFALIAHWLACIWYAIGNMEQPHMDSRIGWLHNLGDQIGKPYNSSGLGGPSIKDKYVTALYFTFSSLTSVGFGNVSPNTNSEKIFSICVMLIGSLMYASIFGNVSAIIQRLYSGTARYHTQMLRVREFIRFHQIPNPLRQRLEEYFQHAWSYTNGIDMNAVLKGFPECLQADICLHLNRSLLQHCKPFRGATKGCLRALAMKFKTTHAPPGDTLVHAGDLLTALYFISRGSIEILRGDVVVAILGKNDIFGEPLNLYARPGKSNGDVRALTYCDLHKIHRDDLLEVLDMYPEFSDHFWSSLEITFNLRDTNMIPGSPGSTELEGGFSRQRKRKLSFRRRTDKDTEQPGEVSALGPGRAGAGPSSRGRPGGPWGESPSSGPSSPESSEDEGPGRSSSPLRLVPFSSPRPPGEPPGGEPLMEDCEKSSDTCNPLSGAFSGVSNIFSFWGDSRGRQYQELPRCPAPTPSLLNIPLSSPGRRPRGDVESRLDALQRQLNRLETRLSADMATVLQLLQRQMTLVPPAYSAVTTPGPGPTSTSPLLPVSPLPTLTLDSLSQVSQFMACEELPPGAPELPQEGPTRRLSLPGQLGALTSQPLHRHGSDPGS

hERG (KCNH2), sequence (Q12809 whole entry, the tested form may be a part): as the sequence (Q12809 whole entry) above

In the case of C[C@H](CCCOc1ccccc1Cn1c(C(F)(F)F)cnc1-c1ccc(C#N)cc1)CC(=O)O, the AUC(0-inf) [1] is reported as 14700 ng·h/mL, the inhibition at 10 µM [2] is reported as 4% and the EC50 [3] is reported as greater than 100 µM. The EC50 [4] was greater than 100 µM.

Work on C[C@H](CCCOc1ccccc1Cn1c(Cl)cnc1-c1ccc(C(F)(F)F)cc1)CC(=O)O yielded an AUC(0-inf) [1] of 3880 ng·h/mL, a bioavailability [5] of 100% and an EC50 [3] greater than 100 µM. The half-life [6] was 3.5 h and the EC50 [4] was greater than 100 µM.

C/C(=C\COc1ccccc1Cc1sc(C)nc1-c1ccc2oc(C)cc2c1)CCC(=O)O gave an inhibition at 10 µM [2] of 14%.

In the case of CN(Cc1ccccc1OCCCCCC(=O)O)C(=O)c1ccc(-c2ccco2)cc1, the inhibition at 10 µM [2] is reported as less than 15%.

Cc1cnc(-c2ccc(C#N)cc2)n1Cc1ccccc1OCCC[C@@H](C)CC(=O)O showed an inhibition at 10 µM [2] of 15%.

Cc1nc(-c2cc(F)c(-c3ccco3)c(F)c2)c(Cc2ccccc2OCCC[C@@H](C)CC(=O)O)s1 showed an inhibition at 10 µM [2] of 4%.

Cc1cnc(-c2ccc(OC(F)(F)F)cc2)n1Cc1ccccc1OCCC[C@@H](C)CC(=O)O gave an IC50 [7] of 10 µM.

With C[C@H](CCCOc1ccccc1Cn1c(C(F)(F)F)cnc1-c1ccc(C(F)(F)F)cc1)CC(=O)O the AUC(0-inf) [1] was 6960 ng·h/mL, the bioavailability [5] was 70% and the inhibition at 10 µM [2] was 5.7%. For the same compound, the EC50 [3] was greater than 100 µM, the half-life [6] was 5.8 h and the EC50 [4] was greater than 100 µM.

With Cc1cnc(-c2ccc(-c3ccco3)cc2)n1Cc1ccccc1OCCCCCC(=O)O the IC50 [7] was 5.5 µM.

For C/C(=C\COc1ccccc1Cc1c(C)cnn1-c1ccc(C(F)(F)F)cc1)CCC(=O)O, the inhibition at 10 µM [2] was 4%.

With Cc1cc2cc(-c3ncc(C)n3Cc3ccccc3OCCCCCC(=O)O)ccc2o1 the inhibition at 10 µM [2] was 51%.
